{"source": "patent US5025036A", "about": "“Catechol carboxylic acids” (Hoffmann-La Roche Inc., priority 1989, dated 1991)", "key": {"[1]": {"test_system": "myeloperoxidase accumulation (acetic acid-induced colitis)", "assay": "Acetic Acid-Induced Colitis in Rats, In Vivo", "design": "species or system male rats (Sprague-Dawley)", "from_the_text": "The rat acetic acid-induced colitis bioassay has been described by J. E. Krawisz, et al. in Amer. J. Proc. Gastro. Col. Rec. Surg. 31: 11-18 (1980), and by P. Sharon and W. F. Stenson in Gastroenterolgy 88: 55-63 (1985) and 86: 453-460 (1984). Acetic acid-induced colitis is characterized by the movement of inflammatory cells into the colon, with the number of such cells in the mucosa being measured by the activity of myeloperoxidase, a marker enzyme for these cells. Positive desirable activity is indicated by a reduction in the high levels of myeloperoxidase caused by acetic acid. Male rats (Sprague-Dawley), weighing 150 to 300 g, were pretreated twice daily for two days with either the vehicle (water, or dimethylsulfoxide) or the test inhibitor compound suspended in water or dissolved in dimethylsulfoxide and orally administered. On the third day, the animals were dosed the same as on the previous two days, anesthetized with metofane, and 2 ml of 2.5% acetic acid was injected by syringe into the colonic lumen, followed immediately by 3 ml of air and a rinse consisting of 3 ml of phosphate-buffered saline (the acetic acid is present in the lumen for a sufficient period to cause inflammation without producing severe necrosis or irreversible damage). The animals were administered a second dose of the test compound in the same amount about 16 hours later. 24 hours after the acetic acid treatment, the animals were sacrificed, the colonic mucosa was surgically removed and homogenized in an aqueous buffer at pH 6 with a Tissumizer or similar device and myeloperoxidase was measured in the homogenate using o-phenylenediamine as a chromagen, as described by A. Voller, D. E. Bidwell and A. Bartlett in The Enzyme Linked Immunosorbent Assay (ELISA), Zoological Soc., London, 1979, pages 29-30. Control animals were pretreated with the vehicle and saline in place of acetic acid."}, "[2]": {"test_system": "Carrageenan pleurisy", "assay": "Carrageenan Pleurisy Test (In Vivo)", "design": "species or system male Lewis rats", "details": "Rattus norvegicus, po, read-out: Rat Carrageenan Pleurisy % Inhib. of Exudate Volume", "protocol": "The animals utilized in these studies were male Lewis rats (Charles River Breeding Laboratories) weighing between 230-250 g. […] At 5 or 24 hours after CG injection, the rats were killed by decapitation, exsanguinated, and the pleural cavity exposed by cutting the ribs on both sides of the sternum. The exudate fluid was removed from the pleural cavity with disposable plastic pipettes and its volume quantitated. The pleural cavity was then washed once with phosphate buffered saline containing fetal bovine serum (1:1) and the washings combined with the exudate. The total number of cells in the pleural cavity was quantitated using a Coulter Counter (Model ZM) adjusted to exclude any contaminating RBC. (Published in \"Plant Flavonoids in Biology & Medicine: Biochemical, Pharmacological and Structure-Activity Relationships\" p. 231-242 (1986) Alan R. Liss, Inc.)"}, "[3]": {"target": "T1, Δ^5 -lipoxygenase from rat basophilic leukemia (RBL-1) cells (Rattus norvegicus, UniProt P12527)", "T1 construct": "The isolated cytosolic fraction was stored in liquid N2 for up to 8 weeks without loss of 5-LO enzyme activity; endogenous in cells; host or cells: RBL-1 cells (ATCC CRL 1378), 113,000×g supernatant (cytosol)", "T1 sequence (P12527 1-673)": "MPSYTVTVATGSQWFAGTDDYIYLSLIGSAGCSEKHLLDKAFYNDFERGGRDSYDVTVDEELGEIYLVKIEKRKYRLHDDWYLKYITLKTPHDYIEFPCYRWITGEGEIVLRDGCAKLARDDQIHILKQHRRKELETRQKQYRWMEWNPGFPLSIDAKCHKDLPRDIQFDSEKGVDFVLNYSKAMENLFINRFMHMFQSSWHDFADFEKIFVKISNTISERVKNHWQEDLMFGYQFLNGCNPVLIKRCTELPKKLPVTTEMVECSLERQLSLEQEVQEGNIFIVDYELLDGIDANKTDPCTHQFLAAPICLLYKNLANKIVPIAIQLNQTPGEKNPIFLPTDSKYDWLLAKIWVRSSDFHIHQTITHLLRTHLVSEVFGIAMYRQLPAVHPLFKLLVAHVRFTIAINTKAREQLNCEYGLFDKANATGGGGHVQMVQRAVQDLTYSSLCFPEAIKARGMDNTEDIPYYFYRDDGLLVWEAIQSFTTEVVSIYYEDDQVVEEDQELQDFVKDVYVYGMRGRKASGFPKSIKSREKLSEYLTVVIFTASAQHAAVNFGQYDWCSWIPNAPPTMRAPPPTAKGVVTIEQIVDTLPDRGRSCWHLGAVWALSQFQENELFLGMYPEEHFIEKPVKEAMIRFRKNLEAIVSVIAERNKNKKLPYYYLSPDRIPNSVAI", "assay": "In vitro test for Δ^5-lipoxygenase inhibitors (5-HETE radioimmunoassay)", "format": "biochemical", "details": "for IC50: RBL-1 5-LO, 5-HETE formation, read-out: Inhib. of Δ^5 Lipoxygenase IC50", "protocol": "RBL-1 cells (CRL 1378) were obtained from the American Type Culture Collection, Rockville, MD. DMEM and glutamine were purchased from Flow Labs, McLean, Va. FBS (Gibco, Grand Island, N.Y.) was heat-inactivated for 1 hour at 56° C. Reagents for protein determinations were obtained from Biorad, Rockville Center, N.Y. Arachidonic acid (approx. 99%), ATP (disodium salt), BHT, dextran (clinical grade), tetrasodium EDTA, gelatin, gentamycin sulfate solution, reduced glutathione, 1 M HEPES buffer, indomethacin, NaCl, reduced NADPH, Trizma 7.2, and Trizma 8.5 were purchased from Sigma Chemical, St. Louis, Mo. CaCL2 dihydrate, Norit A charcoal, and citric acid monohydrate were obtained from Fisher Scientific, Pittsburgh, Pa. […] A synthetic 5-HETE standard was supplied by Dr. M. Rosenberger, Dept. of Medicinal Chemistry, Hoffmann La-Roche, Nutley, N.J.; [see Corey, E. J., and Hashimoto, S. (1981) Tet. […] Approximately 7-9 days after thawing, RBL-1 cells growing in log phase were seeded at a density of 7500 viable cells/ml in a closed 89-liter spinner flask. […] RBL-1 cells were harvested by centrifugation at 4° C. at 1500×g for 10 minutes and were washed 3 times with ice cold 0.05M tris-hCl, pH 7.2, tetrasodium EDTA (buffer 1). The cells were washed last in 0.05M Tris-HCl containing 14 μM indomethacin, 1 mM glutathione, 1.5 mM NaCl, and 1 mM tetrasodium EDTA (buffer 2), resuspended at a density of 5×108'/ml approximately 10 ml) and disrupted manually at 4° C. using a 40 ml Dounce (type A pestle) homogenizer. After 5 minutes of homogenization, 95% cell lysis was confirmed by phase contrast microscopy. The broken cells were diluted 1:2 with buffer 2 and centrifuged at 12,380×g for 10 minutes at 4° C. to pellet cellular debris and granules. The 12,380×g supernatant was centrifuged at 113,000×g for 60 minutes to pellet microsomes. The high-speed supernatant (5.9±0.48 mg/ml protein) was frozen immediately in 1 ml aliquots using a dry ice/acetone bath. The isolated cytosolic fraction was stored in liquid N2 for up to 8 weeks without loss of 5-LO enzyme activity. Compounds were dissolved at 25 mM concentration in DMSO, then diluted to final concentrations using 95% ethanol. For a typical enzyme assay, the partially purified 5-LO preparation was preincubated with drug or vehicle for 10 minutes at 30° C. The assay tubes were then transferred at a 37° C. water bath where they received arachidonic acid (8.25 μM final concentration) to initiate 5-LO activity. […] The samples were immediately cooled on ice and neutralized by dilution with 0.05M Tris-HCl, pH 8.5, which contained 25 mg/1 BHT. A boiled cytosol control was placed at the end of each assay to emasure non-enzymatic oxidation of arachidonic acid. […] Under the assay conditions described, the 5-LO catalyzed the conversion of arachidonic acid to 5-HPETE which, as a consequence of peroxidase activity, was reduced to 5-HETE. A specific radioimmunoassay was employed to quantitate the amount (pmoles) of 5-HETE formed during the enzyme reaction. To prepare the immunogen, Dr. M. Rosenberger (Dept. of Medicinal Chemistry) converted the racemic 5-HETE lactone (Corey, E. J., and Hashimoto, S. (1981) Tet. Letters, 22, 299-302) to its hydrazine derivative. The hydrazide was conjugated to thiolated Keyhole Limpet Hemocyanin (Young, […]., and Rokach, J. (1982) Prostaglandins 23, 603-613) using N-ethyl-maleimide as previously described for LTB4 by (Young, R., N, Zomboni, R. and Rokach, J. 91983) Prostaglandins, 26, 605-613). New Zealand White rabbits received multiple intradermal injections on their backs with […] conjugate emulsified in complete Freund's adjuvant. A schedule of injections reported by Salmon (Salmon, J. A. (1978) Prostaglandins, 15, 383-397) was followed. After the monthly i.p. booster injections, blood was obtained from the marginal ear vein 5-7 days later and assessed for antibody titer. […]"}}}
{"smiles": "CCCc1c(OCCCCCc2ccc(O)c(O)c2)ccc(C(C)=O)c1O", "note": "[1-[4-[5-(3,4-Dihydroxyphenyl)pentyloxy]-2-hydroxy-3-propylphenyl]-1-ethanone]", "values": [{"measurement": "Rat Acetic Acid Colitis Model % Inhib. of Myeloperoxidase Accumulation", "setting": "[1]; 10 mg/kg p.o", "result": "52 ± 6", "unit": "%"}]}
{"smiles": "CCCc1c(OCCCCCCc2cccc(O)c2O)ccc(C(C)=O)c1O", "note": "[1-[4-[6-(2,3-Dihydroxyphenyl)hexyloxy]]", "values": [{"measurement": "Rat Acetic Acid Colitis Model % Inhib. of Myeloperoxidase Accumulation", "setting": "[1]; 10 mg/kg p.o", "result": "51 ± 5", "unit": "%"}]}
{"smiles": "CCCc1c(OCCCCCCc2cccc(O)c2O)ccc(C(=O)O)c1OC(C)=O", "note": "[2-Acetyloxy-4-[6-(2,3-dihydroxyphenyl)hexyloxy]-3-propylbenzoic acid]", "values": [{"measurement": "inhibition in vivo at 100 mg/kg", "setting": "[2]; at 100 mg/kg p.o", "result": 42, "unit": "%"}, {"measurement": "IC50", "setting": "[3]", "result": 190, "unit": "nM"}]}
{"smiles": "Nc1cc(C(=O)O)ccc1OCCCCCCc1cccc(O)c1O", "note": "[3-Amino-4-[6-(2,3-dihydroxyphenyl)hexyloxy]benzoic acid]", "values": [{"measurement": "Rat Acetic Acid Colitis Model % Inhib. of Myeloperoxidase Accumulation", "setting": "[1]; 1 mg/kg p.o", "result": "55 ± 7", "unit": "%"}]}
{"smiles": "CCCc1c(OCCc2ccc(O)c(O)c2)ccc(C(=O)O)c1O", "note": "[4 [2 (3,4 Dihydroxyphenyl)ethoxy]-2 hydroxy 3 propylbenzoic acid]", "values": [{"measurement": "Rat Acetic Acid Colitis Model % Inhib. of Myeloperoxidase Accumulation", "setting": "[1]; 10 mg/kg p.o", "result": "56 ± 6", "unit": "%"}]}
{"smiles": "CCCc1c(OCCCc2cccc(O)c2O)ccc(C(=O)O)c1O", "note": "[4-[3-(2,3-Dihydroxyphenyl)propoxy]-2-hydroxy-3-propylbenzoic acid]", "values": [{"measurement": "Rat Acetic Acid Colitis Model % Inhib. of Myeloperoxidase Accumulation", "setting": "[1]; 10 mg/kg p.o", "result": "54 ± 5", "unit": "%"}]}
{"smiles": "CCCc1c(OCCCCCc2c(O)c(O)c(Cl)c(Cl)c2Cl)ccc(C(=O)O)c1O", "note": "[4-[5-(2,3,4-Trichloro-5,6-dihydroxyphenyl)pentyloxy]-2-hydroxy-3-propylbenzoic acid]", "values": [{"measurement": "Rat Acetic Acid Colitis Model % Inhib. of Myeloperoxidase Accumulation", "setting": "[1]; 1 mg/kg p.o", "result": "115 ± 21", "unit": "%"}]}
{"smiles": "CCCc1c(OCCCCCc2c(O)c(O)cc(Cl)c2Cl)ccc(C(=O)O)c1O", "note": "[4-[5-(2,3-Dichloro-5,6-dihydroxyphenyl)pentyloxy]-2-hydroxy-3-propylbenzoicacid]", "values": [{"measurement": "Rat Acetic Acid Colitis Model % Inhib. of Myeloperoxidase Accumulation", "setting": "[1]; 1 mg/kg p.o", "result": "73 ± 5", "unit": "%"}]}
{"smiles": "CCCc1c(OCCCCCc2c(Cl)ccc(O)c2O)ccc(C(=O)O)c1O", "note": "[4-[5-(2-Chloro-5,6-dihydroxyphenyl)pentyloxy]-2-hydroxy-3-propylbenzoic acid]", "values": [{"measurement": "Rat Acetic Acid Colitis Model % Inhib. of Myeloperoxidase Accumulation", "setting": "[1]; 3 mg/kg p.o", "result": "54 ± 9", "unit": "%"}]}
{"smiles": "CCCc1c(OCCCCCCc2cccc(OC(C)=O)c2OC(C)=O)ccc(C(=O)O)c1O", "note": "[4-[6-[2,3-Bis(acetyloxy)phenyl]hexyloxy]-2-hydroxy-3-propylbenzoic acid]", "values": [{"measurement": "inhibition in vivo at 75 mg/kg", "setting": "[2]; at 75 mg/kg p.o", "result": 43, "unit": "%"}, {"measurement": "IC50", "setting": "[3]", "result": 150, "unit": "nM"}]}
{"smiles": "CCCc1c(OCCCCCC(=O)c2cc(O)c(O)cc2F)ccc(C(=O)O)c1O", "note": "[4-[[6-(2-Fluoro-4,5-dihydroxyphenyl)-6-oxohexyl]oxy]-2-hydroxy-3-propylbenzoic acid]", "values": [{"measurement": "Rat Acetic Acid Colitis Model % Inhib. of Myeloperoxidase Accumulation", "setting": "[1]; 10 mg/kg p.o", "result": "40 ± 5", "unit": "%"}]}
{"smiles": "CCCc1c(OCCCCCCc2cc(C)c(O)c(O)c2C)ccc(C(=O)O)c1O", "note": "[4-[[6-(3,4-Dihydroxy-2,5-dimethylphenyl)hexyloxy]-2-hydroxy-3-propylbenzoicacid]", "values": [{"measurement": "Rat Acetic Acid Colitis Model % Inhib. of Myeloperoxidase Accumulation", "setting": "[1]; 3 mg/kg p.o", "result": "37 ± 6", "unit": "%"}, {"measurement": "Rat Acetic Acid Colitis Model % Inhib. of Myeloperoxidase Accumulation", "setting": "[1]; 10 mg/kg p.o", "result": "85 ± 13", "unit": "%"}]}
{"smiles": "CCCc1c(OCCCCCC(=O)c2ccc(O)c(O)c2)ccc(C(=O)O)c1O", "note": "[4-[[6-(3,4-Dihydroxyphenyl)-6-oxohexyl]oxy]-2-hydroxy-3-propylbenzoic acid]", "values": [{"measurement": "inhibition at 1 µM", "setting": "[3]; read-out: Inhib. of Δ^5 Lipoxygenase, % inhibition at 1 μM", "result": 51, "unit": "%"}]}
